From paper PMC9240639, “Williams-Beuren Syndrome Related Methyltransferase WBSCR27: From Structure to Possible Function” (Frontiers in Molecular Biosciences, 2022)

Biological target: T1, WBSCR27 (Mus musculus, UniProt Q8BGM4)
T1 construct: gene Mettl27; recombinant in E. coli, Ni-NTA, His-tag cleaved; isotope-labelled for NMR
T1 sequence (Q8BGM4 1-238): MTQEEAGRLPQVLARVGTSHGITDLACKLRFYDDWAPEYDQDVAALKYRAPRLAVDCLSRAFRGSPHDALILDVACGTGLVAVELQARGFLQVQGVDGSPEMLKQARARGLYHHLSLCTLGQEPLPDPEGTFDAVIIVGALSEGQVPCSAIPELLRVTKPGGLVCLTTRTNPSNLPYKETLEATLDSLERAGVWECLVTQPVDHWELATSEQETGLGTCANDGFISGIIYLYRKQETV
Experiment: […],1H HSQC NMR of epimer mixture with protein
Type: binding
Settings: 308 K, labelled compound (methyl 13C), 0.05 mM each

Compound | 13C,1H HSQC NMR of epimer mixture with protein (equimolar mixture with (S,S)-SAM, seen bound only at the higher protein ratio) | 13C,1H HSQC NMR of epimer mixture with protein (equimolar mixture with (R,S)-SAM)
C[S+](CC[C@H](N)C(=O)O)C[C@H]1O[C@@H](n2cnc3c(N)ncnc32)[C@H](O)[C@@H]1O (mixture of isomers) [(R,S)-SAM] | This indicates a significantly lower affinity of the (R,S)-epimer compared with the (S,S)-epimer | –
C[S+](CC[C@H](N)C(=O)O)C[C@H]1O[C@@H](n2cnc3c(N)ncnc32)[C@H](O)[C@@H]1O (stereo partly drawn) [(S,S)-SAM] | – | WBSCR27 preferably binds the (S,S) stereoisomer
